The record followed here is ChEMBL document CHEMBL4622857, “Is GPR146 really the receptor for proinsulin C-peptide?” (Bioorg Med Chem Lett, 2020).

The target in series [1] is G-protein coupled receptor 146 (Homo sapiens) (UniProt Q96CH1). Briefly: Activation of human GPR146 receptor expressed in HEK293 cells assessed as increase in dynamic mass redistribution response by DMR assay. It counts as cell-based.
For series [2] the target is unchanged. Briefly: Activation of human GPR146 receptor expressed in HK2 cells assessed as increase in dynamic mass redistribution response by DMR assay. It counts as cell-based.
Series [3] deals with Glucagon-like peptide 1 receptor (Homo sapiens) (UniProt P43220). Briefly: Activation of human GLP1R expressed in CHO-K1 cells assessed as increase in dynamic mass redistribution response at 100 uM by DMR assay. It counts as cell-based.
Chain of Glucagon-like peptide 1 receptor (Homo sapiens) (P43220 whole entry): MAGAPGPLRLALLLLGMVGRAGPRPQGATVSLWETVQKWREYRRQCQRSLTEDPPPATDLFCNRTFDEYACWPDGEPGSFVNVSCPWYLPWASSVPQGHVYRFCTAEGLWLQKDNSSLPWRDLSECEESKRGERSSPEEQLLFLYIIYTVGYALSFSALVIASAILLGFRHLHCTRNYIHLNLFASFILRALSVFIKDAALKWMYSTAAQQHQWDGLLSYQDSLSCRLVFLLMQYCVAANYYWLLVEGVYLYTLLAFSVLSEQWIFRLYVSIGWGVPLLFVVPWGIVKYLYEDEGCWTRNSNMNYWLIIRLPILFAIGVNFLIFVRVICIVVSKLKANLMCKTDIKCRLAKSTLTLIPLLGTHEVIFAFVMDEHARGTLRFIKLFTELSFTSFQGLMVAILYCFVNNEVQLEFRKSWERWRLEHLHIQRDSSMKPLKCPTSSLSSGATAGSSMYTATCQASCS
The nature of series [4]: Drug uptake in human HK2 cells at 0.1 to 0.5 uM using Cy3-labeled compound by fluorescence microscopy. The class given is ADME, cell-based. Particulars: hk-2, 0.5 µM.
Series [5] deals with G-protein coupled receptor 146 (Homo sapiens) (UniProt Q96CH1). Nature of the series: Activation of human GPR146 expressed in HEK293 cells assessed as increase in dynamic mass redistribution response up to 100 uM by DMR assay. The class given is cell-based.
Series [6] has the same target. Briefly: Activation of human GPR146 expressed in CHO-K1 cells assessed as increase in dynamic mass redistribution response at 100 uM by DMR assay. It counts as cell-based.
For series [7] the target is unchanged. Briefly: Agonist activity at human GPR146 receptor expressed in HEK293 cells assessed as recruitment of beta-arrestin up to 100 uM by PathHunter assay. The class given is cell-based.
Series [8] in a line: Drug uptake in CHOK1 cells at 0.1 to 0.5 uM by using Cy3-labeled compound by fluorescence microsocpy. Particulars: chinese hamster, cho-k1, 0.5 µM. The class given is ADME, cell-based, Cricetulus griseus.
Series [9] in a line: Drug uptake in CHOK1 cells expressing human GPR146 at 0.1 to 0.5 uM by using Cy3-labeled compound by fluorescence microsocpy. It counts as ADME, cell-based, Cricetulus griseus. Particulars: chinese hamster, cho-k1, 0.5 µM.
The target in series [10] is G-protein coupled receptor 146 (Homo sapiens) (UniProt Q96CH1). Briefly: Activation of human GPR146 expressed in HK2 cells assessed as increase in dynamic mass redistribution response up to 100 uM by DMR assay. It counts as cell-based.
The target is the same in series [11]. Nature of the series: Activation of human GPR146 expressed in CHO-K1 cells assessed as increase in dynamic mass redistribution response upto 100 uM by DMR assay. The class given is cell-based.
Series [12] has as its target Glucagon-like peptide 1 receptor (Homo sapiens) (UniProt P43220). Nature of the series: Activation of human GLP1R expressed in CHO-K1 cells assessed as increase in dynamic mass redistribution response upto 100 uM by DMR assay. It counts as cell-based.

Calls of active or inactive are those of the source. The calls are words filed in the database; no cut-off is given here.

Chain of G-protein coupled receptor 146 (Homo sapiens) (Q96CH1 whole entry): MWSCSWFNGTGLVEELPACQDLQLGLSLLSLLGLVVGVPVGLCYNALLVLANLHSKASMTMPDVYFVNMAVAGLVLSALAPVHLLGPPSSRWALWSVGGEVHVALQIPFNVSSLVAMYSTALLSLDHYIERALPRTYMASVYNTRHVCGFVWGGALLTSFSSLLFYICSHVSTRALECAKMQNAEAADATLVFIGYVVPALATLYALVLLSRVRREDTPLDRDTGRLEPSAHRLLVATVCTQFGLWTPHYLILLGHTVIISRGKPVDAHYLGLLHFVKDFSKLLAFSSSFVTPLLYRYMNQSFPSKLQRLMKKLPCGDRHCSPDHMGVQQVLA

As for `C[N+](C)(C)CCOC(N)=O`, the result in series [1] and in [2] was Active.

For `CC(C)C[C@H](NC(=O)[C@H](C)NC(=O)[C@H](CC(C)C)NC(=O)[C@@H]1CCCN1C(=O)[C@H](CCC(N)=O)NC(=O)[C@H](CC(C)C)NC(=O)[C@H](CO)NC(=O)CNC(=O)[C@H](C)NC(=O)CNC(=O)[C@@H]1CCCN1C(=O)CNC(=O)CNC(=O)CNC(=O)[C@H](CC(C)C)NC(=O)[C@H](CCC(=O)O)NC(=O)[C@@H](NC(=O)[C@H](CCC(N)=O)NC(=O)CNC(=O)[C@@H](NC(=O)[C@H](CCC(N)=O)NC(=O)[C@H](CC(C)C)NC(=O)[C@H](CC(=O)O)NC(=O)[C@H](CCC(=O)O)NC(=O)[C@H](C)NC(=O)[C@@H](N)CCC(=O)O)C(C)C)C(C)C)C(=O)N[C@@H](CCC(=O)O)C(=O)NCC(=O)N[C@@H](CO)C(=O)N[C@@H](CC(C)C)C(=O)N[C@@H](CCC(N)=O)C(=O)O` [HUMAN C-PEPTIDE], the result in series [3], in [5], in series [7] and in series [10] was inactive. The Drug uptake result in series [4], in [8] and in series [9] was “Not Active” each time. In series [6], the outcome was Active.

Take H-EGSLQ-OH: the outcome in series [11] and in series [12] was Active. For the same compound, the Drug uptake result in series [4], in series [8] and in [9] was “Not Active” each time. The outcome in [5], in [7] and in series [10] was inactive.

For the compound H-EVARQ-OH, the Drug uptake entry in [4], in series [8] and in series [9] was “Not Active” in each case. Also, the result in series [6] and in series [12] was Active. Besides, the outcome in [7] and in series [10] was inactive.

With H-EVEDPQVEQLELGGSPGDLQTLALEVARQ-OH, the outcome in series [11] and in [12] was Active. The Drug uptake entry in [4], in series [8] and in [9] was “Not Active” each time. Further, the result in series [5], in series [7] and in series [10] was inactive.

Consider H-GADQPVGSEQQVQAGGLEGGLLLGLELPSEA-OH, for which the result in [11] and in series [12] was Active. Besides, the Drug uptake result in [4], in [8] and in [9] was “Not Active” each time. Also, the result in series [5], in series [7] and in series [10] was inactive.
